The results in this text go back to PubChem BioAssay AID2305 (GlaxoSmithKline (GSK), 2010).

For the experiment, the system named is P. falciparum 3D7 growth, pLDH absorbance. Put plainly: blood-stage malaria parasite growth potency – strain 3D7, dose response (AID 2305).
What is called IC50 is the midpoint of a concentration-inhibition curve. A low value points to greater potency. The compound `CC(=O)N(C)c1cccc(C(=O)Nc2ccc(-c3cccc(-c4nc5ccc(C(F)(F)F)cc5[nH]4)c3)cc2)c1` displayed an IC50 of 720 nM.
For `CSc1ccc2ccccc2c1CNCCCCCCNCc1c(SC)ccc2ccccc12`, the IC50 amounted to 800 nM.
For the compound `O=C(Nc1cccc(F)c1)N(Cc1ccc(-c2ccc(CN3CCNCC3)cc2)cc1)C1CCN(Cc2ccccc2)CC1`, the IC50 was 770 nM.
`O=C1Nc2cccc3c2C1(CCCCCN1CCC(c2c[nH]c4ccncc24)CC1)CCC3` (centres undefined) returned an IC50 of 990 nM.
The compound `Cc1cccn2c(=O)c3cc(C(=O)NCCc4ccccc4)c(=N)n(CCCOC(C)C)c3nc12` returned an IC50 of 480 nM.
Compound `CCc1nc2ccc(C(=O)OC)nc2n1Cc1ccc2oc(-c3ccccc3N)c(Br)c2c1` had a concentration for half-maximal inhibition (IC50) of 820 nM.
As for `COc1ccc(Nc2ccnc3cc(-c4ccccn4)ccc23)cc1OC`, the half-maximal inhibitory concentration (IC50) is 30 nM.
`Cc1c(C(C)(C)C)ccc2nc(N)nc(N)c12` showed an IC50 of 10 nM.
Consider `CC(=O)Nc1ccc(S(=O)(=O)Nc2ccc(Nc3nc(C)cc(N4CCCCC4)n3)cc2)cc1`, for which the 50% inhibitory concentration (IC50) came to 780 nM.
Under `O=C(c1cc2cccc([N+](=O)[O-])c2[nH]1)N1CCC(CCN2CCC(c3c[nH]c4ccccc34)CC2)CC1` stands 940 nM; under `CCC[C@@H]([C@@H](Cc1ccc(C)s1)C(=O)N[C@@H](CNC(C)=O)C(=O)Nc1nccs1)N(O)C=O`, 180 nM; under `c1csc(-c2nc(N3CCCC3)ncc2-c2ccsc2)n1`, 210 nM.
`CC(C)CC(NC(=O)c1cc2ccccc2s1)C(=O)N1CCCCCC1c1ccc(C(C)(C)C)cc1` (centres undefined) displayed an IC50 of 860 nM.
Compound `COc1cc2nc(N3CCN(C(=O)c4c(Cl)nsc4-c4ccccc4Cl)CC3)nc(N)c2cc1OC` had an IC50 of 530 nM.
To `COc1ccc(CNCc2ccc(-c3cccc(-c4nc5c(C)cccc5[nH]4)c3)cc2)cc1` belongs 130 nM.
Consider `Nc1ncnc2occ(-c3ccc(NC(=O)Nc4cc(C(F)(F)F)ccc4F)cc3)c12`, for which the IC50 came out at 1720 nM.
Turning to `O=C(Nc1ccc2c(c1)CCNCC2)Nc1ccc2ccccc2c1`, the IC50 is 620 nM.
To `Cc1nn(C2CCS(=O)(=O)C2)c(C)c1C1Nc2ccccc2C(=O)N1Cc1ccc2c(c1)OCO2` (centres undefined) belongs 510 nM; to `CC[C@H]1CN2CC[C@H]1C[C@H]2[C@@H](O)c1cc(OCCCN(C)C)nc2ccc(OC)cc12`, 130 nM.
The compound `CCCCCN1CCCN(Cc2cccc(NC(=O)c3ccc(Cl)c(Cl)c3)c2)CC1` returned a half-maximal inhibitory concentration (IC50) of 930 nM.
To `COc1cc(NC(=O)c2cc([N+](=O)[O-])ccc2NC(=O)CNC2CCCCC2C)cc(OC)c1` (centres undefined) belongs 1730 nM; to `NC(Cc1cccc(I)c1)C(=O)NCC1CCCO1` (centres undefined), 890 nM; to `CC(Cc1ccc(CN2CCN(Cc3ccccc3)CC2)cc1)NCC(O)c1cccc(C(F)(F)F)c1` (centres undefined), 890 nM.
In turn, `Cc1cc(-c2nc3ccc(N4CCN(C)CC4)cc3[nH]2)nn1Cc1cc(Cl)ccc1OCC(C)C` returned an IC50 of 880 nM.
Compound `O=C(Nc1ccc([N+](=O)[O-])cc1)c1nn(-c2ccccc2)cc1N=Cc1cccc(O)c1` had a half-inhibitory concentration (IC50) of 890 nM.
To `COCCNCc1nc(-c2ccc3c(Nc4ccc(Cl)cc4F)ccnc3c2)cs1` belongs 1080 nM; to `COc1cc2nc(NCc3cccc(CNC(=O)c4ccc(-c5ccc(C(C)=O)cc5)cc4)c3)nc(N)c2cc1OC`, 120 nM.
Consider `Nc1ccc(-c2ccc3ccnc(N)c3c2)cn1`, for which the IC50 was 350 nM.
To `CN1CCN(c2cccc(-c3nnc(-c4ccc(OCC(=O)NCc5ccc(C(F)(F)F)cc5)c([N+](=O)[O-])c4)o3)c2)CC1` belongs 660 nM; to `Cc1cc(NN=Cc2ccccc2[N+](=O)[O-])c2cc(C(F)(F)F)ccc2n1`, 750 nM.
Consider `CC(C)C(C(=O)n1cc2c(ccc3nc(N)nc(N)c32)n1)C(C)C`, for which the 50% inhibitory concentration (IC50) stood at 790 nM.
For the compound `COc1cccc(C(=O)[C@H]2C[C@@H]2CN(C)CC(O)c2cc(C)c(OC)cc2C)c1` (some centres undefined), the IC50 turned out to be 1140 nM.
In the case of `O=S(=O)(c1ccccc1)C1CC1`, the IC50 turned out to be 720 nM.
`CC(C)C1C(O)=C(c2ccc3ccccc3c2)C(=O)N1CC1CCCCC1` (centres undefined) registered an IC50 of 1130 nM.
